Measured values published in article PMC4159345, “PF-4708671 Activates AMPK Independently of p70S6K1 Inhibition” (PLoS ONE, 2014).

What was measured:
[1] = biological target: T1, mitochondrial respiratory chain Complex I; assay: spectrophotometric rotenone-sensitive NADH-CoQ reductase activity in isolated MEF mitochondria; assay type: biochemical, Mus musculus
T1 construct: gene Mtnd1; multi-subunit complex in mitochondria isolated from MEF

[2] = system: T1, mitochondrial respiratory chain Complex I; assay: spectrophotometric NADH-CoQ reductase activity in isolated MEF mitochondria, single concentration of […]; assay type: biochemical, Mus musculus

| SMILES | IC50 [1] | spectrophotometric NADH-CoQ reductase activity in isolated MEF mitochondria, sin [2] |
| --- | --- | --- |
| CCc1cncnc1N1CCN(Cc2nc3cc(C(F)(F)F)ccc3[nH]2)CC1 [PF-4708671] | 5.2 µM |  |
| CN(C)C(=N)N=C(N)N [metformin] |  | 5 mM |
